# Laboratory results published in patent US20230365627A1, “MACROCYCLIC PEPTIDE BORONATE IMMUNOMODULATORS” (Bristol-Myers Squibb Company, priority 2020, published 2023).
# *1 amine or outer side, *2 acyl side, *3 side chain or, on linkers, in order; H or OH if unused. Where a SMILES comes first, the peptide text is derived from it. Bridges are numbered along the chain shown (N, C = ends). [ ]: non-standard residue; d: D form. Trp(1-CH2CO) = O=C([C@H](Cc1cn(CC(=O)[*:3])c2ccccc12)N[*:1])[*:2]; X7 = O=C([C@H](CNCc1cc(B(O)O[*:3])ccc1OCc1ccccc1)N[*:1])[*:2]; X22 = O=C([C@H](CNCc1c(B(O)O[*:3])ccc(Cl)c1F)N[*:1])[*:2]; Trp(1-CH2COOH) = N[C@@H](Cc1cn(CC(=O)O)c2ccccc12)C(=O)O; X21 = Cc1ccc(B(O)O[*:3])c(CNC[C@H](N[*:1])C(=O)[*:2])c1; X5 = O=C([C@H](CNCc1ccc(Cl)c(B(O)O[*:3])c1)N[*:1])[*:2]; X15 = COc1cccc(B(O)O[*:3])c1CNC[C@H](N[*:1])C(=O)[*:2]; X31 = O=C([C@H](CNCc1ccc(Cl)cc1B(O)O[*:3])N[*:1])[*:2]; X19 = O=C([C@H](CNCc1cccc(B(O)O[*:3])c1F)N[*:1])[*:2]; X8 = O=C([C@H](CNCc1ccc(B(O)O[*:3])cc1Cl)N[*:1])[*:2]; X3 = O=C([C@H](CNCc1ccc(B(O)O[*:3])cc1F)N[*:1])[*:2]; X1 = Cc1cc(CNC[C@H](N[*:1])C(=O)[*:2])cc(C)c1B(O)O; X20 = O=C([C@H](CCNCc1cccc(B(O)O)c1F)N[*:1])[*:2]; Hyp = O=C(O)[C@@H]1C[C@@H](O)CN1; NMeNle = CCCC[C@H](NC)C(=O)O; NMeA = CN[C@@H](C)C(=O)O; Dab = NCC[C@H](N)C(=O)O
# Molecular target: PD-1/PD-L1 (Homo sapiens (Human), UniProt Q9NZQ7)
# Test: PD-1/PD-L1 Homogenous Time-Resolved Fluorescence (HTRF) binding assay
# Conditions: PD-L1-His 10 nM, PD-1-Ig 20 nM; read-out: HTRF IC50
# Description: Methods for Testing the Ability of Macrocyclic Peptides to Compete for the Binding of PD-1 to PD-L1 Using Homogenous Time-Resolved Fluorescence (HTRF) Binding Assays
# The ability of the compounds of formula (I) to bind to PD-L1 was investigated using a PD-1/PD-L1 Homogenous Time-Resolved Fluorescence (HTRF) binding assay.
# Homogenous Time-Resolved Fluorescence (HTRF) Binding Assay
# The interaction of PD-1 and PD-L1 can be assessed using soluble, purified preparations of the extracellular domains of the two proteins. The PD-1 and PD-L1 protein extracellular domains were expressed as fusion proteins with detection tags, for PD-1, the tag was the Fc portion of Immunoglobulin (PD-1-Ig) and for PD-L1 it was the 6 histidine motif (PD-L1-His). All binding studies were performed in an HTRF assay buffer consisting of dPBS supplemented with 0.1% […] bovine serum albumin and 0.05% (v/v) Tween-20. For the h/PD-L1-His binding assay, inhibitors were pre-incubated with PD-L1-His (10 nM final) for 15 m in 4 μl of assay buffer, followed by addition of PD-1-Ig (20 nM final) in 1 μl of assay buffer and further incubation for 15 m. HTRF detection was achieved using europium cryptate-labeled anti-Ig (1 nM final) and allophycocyanin (APC) labeled anti-His (20 nM final). Antibodies were diluted in HTRF detection buffer and 5 μl was dispensed on top of the binding reaction. The reaction mixture was allowed to equilibrate for 30 minutes and the resulting signal (665 nm/620 nm ratio) was obtained using an EnVision fluorometer. Additional binding assays were established between the human proteins PD-1-Ig/PD-L2-His (20 & 5 nM, respectively) and CD80-His/PD-L1-Ig (100 & 10 nM, respectively).
# Recombinant Proteins: Human PD-1 (25-167) with a C-terminal human Fc domain of immunoglobulin G (Ig) epitope tag [hPD-1 (25-167)-3S-IG] and human PD-L1 (18-239) with a C-terminal His epitope tag [hPD-L1(18-239)-TVMV-His] were expressed in HEK293T cells and purified sequentially by ProteinA affinity chromatography and size exclusion chromatography. Human PD-L2-His and CD80-His was obtained through commercial sources.
# Table 1 lists the IC50 values for representative examples of this disclosure measured in the PD-1/PD-L1 Homogenous Time-Resolved Fluorescence (HTRF) binding assay.
# PD-1/PD-L1, sequence (Q9NZQ7 18-239): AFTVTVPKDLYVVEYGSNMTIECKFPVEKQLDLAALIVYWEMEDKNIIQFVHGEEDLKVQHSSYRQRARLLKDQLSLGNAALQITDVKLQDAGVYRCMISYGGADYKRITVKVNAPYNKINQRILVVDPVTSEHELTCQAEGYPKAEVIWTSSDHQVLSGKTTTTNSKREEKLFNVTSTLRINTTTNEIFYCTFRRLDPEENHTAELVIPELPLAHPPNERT
row,Structure (SMILES),IC50
1,CCCC[C@H]1C(=O)N(C)[C@@H](CCCC)C(=O)N[C@@H](CC(C)C)C(=O)N[C@H](C(=O)NCC(N)=O)CSCC(=O)N[C@@H](Cc2ccc(O)cc2)C(=O)N(C)[C@@H](C)C(=O)N[C@@H](CC(N)=O)C(=O)N2CCC[C@H]2C(=O)N[C@H]2CNCc3ccc(Cl)c(c3)B(O)OC(=O)Cn3cc(c4ccccc43)C[C@H](NC(=O)[C@H](CCN)NC(=O)[C@H](Cc3c[nH]c4ccccc34)NC(=O)[C@@H]3C[C@@H](O)CN3C(=O)[C@H](CC(C)C)NC2=O)C(=O)N1C [Example 1011] ({CH2CO}-Y[NMeA]NP[X5]L[Hyp]W[Dab][Trp(1-CH2CO)][NMeNle][NMeNle]LCG-NH2; ester 5-10; thioether N-14),6.4 nM
2,CCCC[C@H]1C(=O)N(C)[C@@H](CCCC)C(=O)N[C@@H](CC(C)C)C(=O)N[C@H](C(=O)NCC(N)=O)CSCC(=O)N[C@@H](Cc2ccc(O)cc2)C(=O)N(C)[C@@H](C)C(=O)N[C@@H](CC(N)=O)C(=O)N2CCC[C@H]2C(=O)N[C@H]2CNCc3c(OC)cccc3B(O)OC(=O)Cn3cc(c4ccccc43)C[C@H](NC(=O)[C@H](CCN)NC(=O)[C@H](Cc3c[nH]c4ccccc34)NC(=O)[C@@H]3C[C@@H](O)CN3C(=O)[C@H](CC(C)C)NC2=O)C(=O)N1C [Example 1012] ({CH2CO}-Y[NMeA]NP[X15]L[Hyp]W[Dab][Trp(1-CH2CO)][NMeNle][NMeNle]LCG-NH2; ester 5-10; thioether N-14),3 nM
3,CCCC[C@H]1C(=O)N(C)[C@@H](CCCC)C(=O)N[C@@H](CC(C)C)C(=O)N[C@H](C(=O)NCC(N)=O)CSCC(=O)N[C@@H](Cc2ccc(O)cc2)C(=O)N(C)[C@@H](C)C(=O)N[C@@H](CC(N)=O)C(=O)N2CCC[C@H]2C(=O)N[C@H]2CNCc3ccc(cc3F)B(O)OC(=O)Cn3cc(c4ccccc43)C[C@H](NC(=O)[C@H](CCN)NC(=O)[C@H](Cc3c[nH]c4ccccc34)NC(=O)[C@@H]3C[C@@H](O)CN3C(=O)[C@H](CC(C)C)NC2=O)C(=O)N1C [Example 1013] ({CH2CO}-Y[NMeA]NP[X3]L[Hyp]W[Dab][Trp(1-CH2CO)][NMeNle][NMeNle]LCG-NH2; ester 5-10; thioether N-14),3.7 nM
4,CCCC[C@H]1C(=O)N(C)[C@@H](CCCC)C(=O)N[C@@H](CC(C)C)C(=O)N[C@H](C(=O)NCC(N)=O)CSCC(=O)N[C@@H](Cc2ccc(O)cc2)C(=O)N(C)[C@@H](C)C(=O)N[C@@H](CC(N)=O)C(=O)N2CCC[C@H]2C(=O)N[C@@H](CNCc2cc(C)c(B(O)O)c(C)c2)C(=O)N[C@@H](CC(C)C)C(=O)N2C[C@H](O)C[C@H]2C(=O)N[C@@H](Cc2c[nH]c3ccccc23)C(=O)N[C@@H](CCN)C(=O)N[C@@H](Cc2cn(CC(=O)O)c3ccccc23)C(=O)N1C [Example 1014] ({CH2CO}-Y[NMeA]NP[X1]L[Hyp]W[Dab][Trp(1-CH2COOH)][NMeNle][NMeNle]LCG-NH2; thioether N-14),8.2 nM
5,CCCC[C@H]1C(=O)N(C)[C@@H](CCCC)C(=O)N[C@@H](CC(C)C)C(=O)N[C@H](C(=O)NCC(N)=O)CSCC(=O)N[C@@H](Cc2ccc(O)cc2)C(=O)N(C)[C@@H](C)C(=O)N[C@@H](CC(N)=O)C(=O)N2CCC[C@H]2C(=O)N[C@H]2CNCc3cccc(c3F)B(O)OC(=O)Cn3cc(c4ccccc43)C[C@H](NC(=O)[C@H](CCN)NC(=O)[C@H](Cc3c[nH]c4ccccc34)NC(=O)[C@@H]3C[C@@H](O)CN3C(=O)[C@H](CC(C)C)NC2=O)C(=O)N1C [Example 1015] ({CH2CO}-Y[NMeA]NP[X19]L[Hyp]W[Dab][Trp(1-CH2CO)][NMeNle][NMeNle]LCG-NH2; ester 5-10; thioether N-14),6.7 nM
6,CCCC[C@H]1C(=O)N(C)[C@@H](CCCC)C(=O)N[C@@H](CC(C)C)C(=O)N[C@H](C(=O)NCC(N)=O)CSCC(=O)N[C@@H](Cc2ccc(O)cc2)C(=O)N(C)[C@@H](C)C(=O)N[C@@H](CC(N)=O)C(=O)N2CCC[C@H]2C(=O)N[C@H]2CNCc3cc(C)ccc3B(O)OC(=O)Cn3cc(c4ccccc43)C[C@H](NC(=O)[C@H](CCN)NC(=O)[C@H](Cc3c[nH]c4ccccc34)NC(=O)[C@@H]3C[C@@H](O)CN3C(=O)[C@H](CC(C)C)NC2=O)C(=O)N1C [Example 1016] ({CH2CO}-Y[NMeA]NP[X21]L[Hyp]W[Dab][Trp(1-CH2CO)][NMeNle][NMeNle]LCG-NH2; ester 5-10; thioether N-14),8.3 nM
7,CCCC[C@H]1C(=O)N(C)[C@@H](CCCC)C(=O)N[C@@H](CC(C)C)C(=O)N[C@H](C(=O)NCC(N)=O)CSCC(=O)N[C@@H](Cc2ccc(O)cc2)C(=O)N(C)[C@@H](C)C(=O)N[C@@H](CC(N)=O)C(=O)N2CCC[C@H]2C(=O)N[C@H]2CNCc3c(ccc(Cl)c3F)B(O)OC(=O)Cn3cc(c4ccccc43)C[C@H](NC(=O)[C@H](CCN)NC(=O)[C@H](Cc3c[nH]c4ccccc34)NC(=O)[C@@H]3C[C@@H](O)CN3C(=O)[C@H](CC(C)C)NC2=O)C(=O)N1C [Example 1017] ({CH2CO}-Y[NMeA]NP[X22]L[Hyp]W[Dab][Trp(1-CH2CO)][NMeNle][NMeNle]LCG-NH2; ester 5-10; thioether N-14),7.1 nM
8,CCCC[C@H]1C(=O)N(C)[C@@H](CCCC)C(=O)N[C@@H](CC(C)C)C(=O)N[C@H](C(=O)NCC(N)=O)CSCC(=O)N[C@@H](Cc2ccc(O)cc2)C(=O)N(C)[C@@H](C)C(=O)N[C@@H](CC(N)=O)C(=O)N2CCC[C@H]2C(=O)N[C@H]2CNCc3ccc(Cl)cc3B(O)OC(=O)Cn3cc(c4ccccc43)C[C@H](NC(=O)[C@H](CCN)NC(=O)[C@H](Cc3c[nH]c4ccccc34)NC(=O)[C@@H]3C[C@@H](O)CN3C(=O)[C@H](CC(C)C)NC2=O)C(=O)N1C [Example 1018] ({CH2CO}-Y[NMeA]NP[X31]L[Hyp]W[Dab][Trp(1-CH2CO)][NMeNle][NMeNle]LCG-NH2; ester 5-10; thioether N-14),4.9 nM
9,CCCC[C@H]1C(=O)N(C)[C@@H](CCCC)C(=O)N[C@@H](CC(C)C)C(=O)N[C@H](C(=O)NCC(N)=O)CSCC(=O)N[C@@H](Cc2ccc(O)cc2)C(=O)N(C)[C@@H](C)C(=O)N[C@@H](CC(N)=O)C(=O)N2CCC[C@H]2C(=O)N[C@H]2CNCc3cc(ccc3OCc3ccccc3)B(O)OC(=O)Cn3cc(c4ccccc43)C[C@H](NC(=O)[C@H](CCN)NC(=O)[C@H](Cc3c[nH]c4ccccc34)NC(=O)[C@@H]3C[C@@H](O)CN3C(=O)[C@H](CC(C)C)NC2=O)C(=O)N1C [Example 1019] ({CH2CO}-Y[NMeA]NP[X7]L[Hyp]W[Dab][Trp(1-CH2CO)][NMeNle][NMeNle]LCG-NH2; ester 5-10; thioether N-14),4.8 nM
10,CCCC[C@H]1C(=O)N(C)[C@@H](CCCC)C(=O)N[C@@H](CC(C)C)C(=O)N[C@H](C(=O)NCC(N)=O)CSCC(=O)N[C@@H](Cc2ccc(O)cc2)C(=O)N(C)[C@@H](C)C(=O)N[C@@H](CC(N)=O)C(=O)N2CCC[C@H]2C(=O)N[C@H]2CNCc3ccc(cc3Cl)B(O)OC(=O)Cn3cc(c4ccccc43)C[C@H](NC(=O)[C@H](CCN)NC(=O)[C@H](Cc3c[nH]c4ccccc34)NC(=O)[C@@H]3C[C@@H](O)CN3C(=O)[C@H](CC(C)C)NC2=O)C(=O)N1C [Example 1020] ({CH2CO}-Y[NMeA]NP[X8]L[Hyp]W[Dab][Trp(1-CH2CO)][NMeNle][NMeNle]LCG-NH2; ester 5-10; thioether N-14),14 nM
11,CCCC[C@H]1C(=O)N(C)[C@@H](CCCC)C(=O)N[C@@H](CC(C)C)C(=O)N[C@H](C(=O)NCC(N)=O)CSCC(=O)N[C@H]2Cc3ccc(cc3)OB(O)c3ccc(C)cc3CNCC[C@@H]3NC(=O)[C@H](Cc4c[nH]c5ccccc45)NC(=O)[C@@H]4C[C@@H](O)CN4C(=O)[C@H](CC(C)C)NC(=O)[C@H](CNCc4cc(C)ccc4B(O)OC(=O)Cn4cc(c5ccccc54)C[C@H](NC3=O)C(=O)N1C)NC(=O)[C@@H]1CCCN1C(=O)[C@H](CC(N)=O)NC(=O)[C@H](C)N(C)C2=O [Example 1021],5.3 nM
12,CCCC[C@H]1C(=O)N(C)[C@@H](CCCC)C(=O)N[C@@H](CC(C)C)C(=O)N[C@H](C(=O)NCC(N)=O)CSCC(=O)N[C@@H](Cc2ccc(O)cc2)C(=O)N(C)[C@@H](C)C(=O)N[C@@H](CC(N)=O)C(=O)N2CCC[C@H]2C(=O)N[C@H]2CNCc3cccc(c3F)B(O)OC(=O)Cn3cc(c4ccccc43)C[C@H](NC(=O)[C@H](CCNCc3cccc(B(O)O)c3F)NC(=O)[C@H](Cc3c[nH]c4ccccc34)NC(=O)[C@@H]3C[C@@H](O)CN3C(=O)[C@H](CC(C)C)NC2=O)C(=O)N1C [Example 1022] ({CH2CO}-Y[NMeA]NP[X19]L[Hyp]W[X20][Trp(1-CH2CO)][NMeNle][NMeNle]LCG-NH2; ester 5-10; thioether N-14),5 nM
